Measurements reported in patent US9504755B2, “Multi-arm polymeric alkanoate conjugates” (Nektar Therapeutics, priority 2008, dated 2016).
Marks after values point to notes of the source that are not given here.

Key:
Type in all cases: in vivo
[1] = system: LS174T tumors; test: Anti-tumor activity in LS174T colorectal mouse xenograft model
Procedure: (§1) H460, LS174T and LoVo tumors were established in female athymic nude mice. Groups of 10 mice received a total of three single doses of 4-ARM-PEG20K-BA-DOC or docetaxel administered every 7 days (q7d×3) at several doses up to a maximum tolerated dose (MTD). Control groups received no treatment after tumor implant. Animals were weighed daily for the first five days and twice weekly thereafter. Tumor volumes were measured twice weekly after the first drug injection.
(§2) Anti-tumor activity was measured as changes in tumor volume, time to reach endpoint, and complete or partial tumor regression.
(§3) Treatment outcome was evaluated by Tumor Growth Delay (TGD), which is defined as the increase in median time to endpoint in a treatment group compared to the control group. Here it is expressed as % TGD, as a percentage to the median time to endpoint of the control group.
(§4) A tumor whose volume was reduced to 50% or less for three consecutive measurements compared to its volume on Day 1 was considered to be in partial regression. Complete regression was defined as volume […] 13.5 mm^3 for three consecutive measurements.
(§5) Acceptable toxicity was defined as a group mean body weight (BW) loss of less than 20% during the study and not more than one treatment-related death among ten treated animals.

[2] = Population pharmacokinetic modeling of terminal disposition rate constant, dogs; details: dog
Excerpt: To further evaluate the sustained plasma docetaxel terminal half-life, a population pharmacokinetic approach was employed.
While determining the pharmacokinetics of docetaxel after administration of docetaxel or 4-ARM-PEG20K-BA-docetaxel, it was observed that reliable values for the terminal disposition rate constant λz could not be obtained for the majority of animals secondary to fluctuation of plasma docetaxel concentrations between adjacent sampling times and/or the occurrence of incomplete concentration-time profiles due to concentrations being near or at the lower limit of quantification (1 ng/mL). In addition, in Example 14, rats were sampled in groups of 15 using alternating, overlapping sparse sampling schemes across groups to encompass the total duration of sampling. All of these factors contributed to the occurrence of sparse data within a given animal's terminal concentration-time profile.
To further investigate and compare docetaxel terminal disposition patterns between docetaxel and 4-ARM-PEG20K-BA-docetaxel, population pharmacokinetic methods were applied to data from rats (Example 14) and dogs (Example 15 and in one additional study). This allowed estimation of population λz values and corresponding half-life values for each treatment group in the presence of incomplete data within individual animals. Specifically, data from all animals within a treatment group and all treatment groups were fit with a nonlinear mixed effect pharmacokinetic model using the program Monolix. Plasma docetaxel concentrations following docetaxel or 4-ARM-PEG20K-BA-docetaxel administration, and plasma 4-ARM-PEG20K-BA-docetaxel concentrations following 4-ARM-PEG20K-BA-docetaxel administration were fit with a model specifying zero-order input of the dose over a defined infusion period and biexponential disposition (Monolix PK Model 26). Docetaxel concentration-time data after 4-ARM-PEG20K-BA-docetaxel were fit with a model having first order input, to reflect metabolism of 4-ARM-PEG20K-BA-docetaxel to the active docetaxel metabolite, and biexponential disposition (Monolix PK Model 31). The parameter of interest for this investigation was the population terminal disposition rate constant, λz to supplement the results described above.
Dogs in the additional study received 7 mg/kg doses of 4-ARM-PEG20K-BA-docetaxel on Days 1 and 22 with serial blood sampling after each dose for determination of plasma 4-ARM-PEG20K-BA-docetaxel and docetaxel concentrations.

[3] = system: H460 tumors; test: Anti-tumor activity in H460 non-small cell lung mouse xenograft model; details: for antitumor activity below MTD: 4-ARM-PEG20K-BA-DOC at 19 mg/kg (58% of its MTD), docetaxel doses less than 25 mg/kg
Procedure: as §1, §2, §3, §4, §5

[4] = 16.9 mg/kg (50.7 mg/m^2), q7d×3
[5] = 22.5 mg/kg (67.5 mg/m^2), q7d×3
[6] = 30 mg/kg (90 mg/m^2), q7d×3 (MTD of docetaxel)
[7] = 40 mg/kg (120 mg/m^2), q7d×3 (MTD of 4-ARM-PEG20K-BA-DOC)
[8] = additional study, conjugate 7 mg/kg on Days 1 and 22
[9] = docetaxel 0.75 mg/kg or conjugate 0.72, 2, 4 mg/kg
[10] = 18.7 mg/kg (56.1 mg/m^2), q7d×3
[11] = 25 mg/kg (75 mg/m^2), q7d×3 (MTD of docetaxel)
[12] = 33.3 mg/kg (99.9 mg/m^2), q7d×3
[13] = 12.7 mg/kg (38.1 mg/m^2), q7d×3
[14] = 30 mg/kg (90 mg/m^2), q7d×3 (MTD of docetaxel), listed as docetaxel

Compound: 4-ARM-PEG20K-Butanoate-Linked Docetaxel Conjugate [4-ARM-PEG20K-BA-DOC]
- BW Loss (%) [1, 4]: 12.4%
- Day of BW Nadir [1, 4]: 23
- No. Surviving/No. Treated Mice [1, 4]: 9/10
- PR (partial regressions) [1, 4]: 0
- TGD (%) [1, 4]: 126* %
- BW Loss (%) [1, 5]: 11.1%
- Day of BW Nadir [1, 5]: 23
- No. Surviving/No. Treated Mice [1, 5]: 10/10
- PR (partial regressions) [1, 5]: 0
- TGD (%) [1, 5]: 169* %
- Day of BW Nadir ([1]; 30 mg/kg (90 mg/m^2), q7d×3): 23
- No. Surviving/No. Treated Mice ([1]; 30 mg/kg (90 mg/m^2), q7d×3): 9/10
- BW Loss (%) [1, 6]: 17.9%
- TGD (%) [1, 6]: 250%
- Day of BW Nadir ([1]; 40 mg/kg (120 mg/m^2), q7d×3): 23
- No. Surviving/No. Treated Mice ([1]; 40 mg/kg (120 mg/m^2), q7d×3): 10/10
- BW Loss (%) [1, 7]: 18.8%
- TGD (%) [1, 7]: 266%
- % TGD fold greater than for docetaxel ([1]; each at MTD): 1.6 fold
- plasma docetaxel half-life, fold longer than after docetaxel [2]: about 8 fold
- Mean (SE) λz, plasma conjugate [2, 8]: 0.0141 (0.00041) h^−1
- Mean (SE) λz, plasma docetaxel [2, 8]: 0.00627 (0.00086) hr^−1
- t½λz, plasma docetaxel [2, 8]: 110 h
- Mean (SE) λz, plasma docetaxel [2, 9]: 0.00349 (0.0021) hr^−1
- t½λz, plasma docetaxel [2, 9]: 199 h
- BW Loss (%) ([3]; 14 mg/kg (42 mg/m^2), q7d×3): 0/0%
- No. Surviving/No. Treated Mice ([3]; 14 mg/kg (42 mg/m^2), q7d×3): 10/10
- TGD (%) ([3]; 14 mg/kg (42 mg/m^2), q7d×3): −1%
- BW Loss (%) [3, 10]: 6.2%
- Day of BW Nadir [3, 10]: 22
- No. Surviving/No. Treated Mice [3, 10]: 10/10
- TGD (%) [3, 10]: 56* %
- Tumor growth delay (%) ([3]; 19 mg/kg (58% MTD), q7d×3): 56%
- Day of BW Nadir ([3]; 25 mg/kg (75 mg/m^2), q7d×3): 29
- No. Surviving/No. Treated Mice ([3]; 25 mg/kg (75 mg/m^2), q7d×3): 10/10
- BW Loss (%) [3, 11]: 10.4%
- TGD (%) [3, 11]: 72** %
- Decrease in body weight ([3]; 33 mg/kg (MTD)): 14.2%
- Tumor growth delay (%) ([3]; 33 mg/kg (MTD), q7d×3): 122%
- BW Loss (%) [3, 12]: 14.2%
- Day of BW Nadir [3, 12]: 22
- No. Surviving/No. Treated Mice [3, 12]: 10/10
- TGD (%) [3, 12]: 122** %
- antitumor activity below MTD [3]: retained significant antitumor activity
- % TGD fold greater than for docetaxel ([3]; each at MTD): 2.5 fold

Compound: CC(=O)O[C@@]12CO[C@@H]1C[C@H](O)[C@@]1(C)C(=O)[C@H](O)C3=C(C)[C@@H](OC(=O)[C@H](O)[C@@H](NC(=O)OC(C)(C)C)c4ccccc4)C[C@@](O)([C@@H](OC(=O)c4ccccc4)[C@H]21)C3(C)C [Docetaxel, reference compound]
- BW Loss (%) [1, 13]: 8.8%
- Day of BW Nadir [1, 13]: 23
- No. Surviving/No. Treated Mice [1, 13]: 10/10
- PR (partial regressions) [1, 13]: 0
- TGD (%) [1, 13]: 69* %
- BW Loss (%) [1, 4]: 11.2%
- Day of BW Nadir [1, 4]: 23
- No. Surviving/No. Treated Mice [1, 4]: 10/10
- PR (partial regressions) [1, 4]: 0
- TGD (%) [1, 4]: 96* %
- BW Loss (%) [1, 5]: 6.7%
- Day of BW Nadir [1, 5]: 23
- No. Surviving/No. Treated Mice [1, 5]: 10/10
- PR (partial regressions) [1, 5]: 0
- TGD (%) [1, 5]: 135* %
- Day of BW Nadir ([1]; 30 mg/kg (90 mg/m^2), q7d×3): 23
- No. Surviving/No. Treated Mice ([1]; 30 mg/kg (90 mg/m^2), q7d×3): 10/10
- BW Loss (%) [1, 6]: 16.6%
- PR (partial regressions) [1, 6]: 0
- TGD (%) [1, 6]: 166* %
- PR (partial regressions) [1, 14]: no partial regressions
- TGD (%) [1, 14]: 166%
- t½λz, plasma docetaxel ([2]; in vivo): 25 h
- BW Loss (%) ([3]; 10 mg/kg (30 mg/m^2), q7d×3): 0/0%
- No. Surviving/No. Treated Mice ([3]; 10 mg/kg (30 mg/m^2), q7d×3): 10/10
- TGD (%) ([3]; 10 mg/kg (30 mg/m^2), q7d×3): −2%
- BW Loss (%) ([3]; 14 mg/kg (42 mg/m^2), q7d×3): 4.1%
- Day of BW Nadir ([3]; 14 mg/kg (42 mg/m^2), q7d×3): 19
- No. Surviving/No. Treated Mice ([3]; 14 mg/kg (42 mg/m^2), q7d×3): 10/10
- TGD (%) ([3]; 14 mg/kg (42 mg/m^2), q7d×3): 4%
- BW Loss (%) [3, 10]: 9.7%
- Day of BW Nadir [3, 10]: 22
- No. Surviving/No. Treated Mice [3, 10]: 10/10
- TGD (%) [3, 10]: 23%
- Day of BW Nadir ([3]; 25 mg/kg (75 mg/m^2), q7d×3): 26
- No. Surviving/No. Treated Mice ([3]; 25 mg/kg (75 mg/m^2), q7d×3): 10/10
- BW Loss (%) [3, 11]: 15.5%
- TGD (%) [3, 11]: 48%
- TGD (%) ([3]; 25 mg/kg (75 mg/m^2), q7d×3 (MTD of docetaxel), listed as docetaxel): 48%
- antitumor activity below MTD [3]: did not
